Test results published in ChEMBL document CHEMBL1136383, “New fibrinolytic agents: benzothiophene derivatives as inhibitors of the t-PA-PAI-1 complex formation” (Bioorg Med Chem Lett, 2003).

The compounds below were run against Plasminogen activator inhibitor 1 (Homo sapiens, UniProt P05121) (assay: Inhibitory activity against plasminogen activator inhibitor 1 (PAI-1) was evaluated by inhibition of tissue plasminogen activator/PAI-1 complex formation in t-PA-induced fibrin clot lysis assay).
Sequence of Plasminogen activator inhibitor 1 (P05121 whole entry): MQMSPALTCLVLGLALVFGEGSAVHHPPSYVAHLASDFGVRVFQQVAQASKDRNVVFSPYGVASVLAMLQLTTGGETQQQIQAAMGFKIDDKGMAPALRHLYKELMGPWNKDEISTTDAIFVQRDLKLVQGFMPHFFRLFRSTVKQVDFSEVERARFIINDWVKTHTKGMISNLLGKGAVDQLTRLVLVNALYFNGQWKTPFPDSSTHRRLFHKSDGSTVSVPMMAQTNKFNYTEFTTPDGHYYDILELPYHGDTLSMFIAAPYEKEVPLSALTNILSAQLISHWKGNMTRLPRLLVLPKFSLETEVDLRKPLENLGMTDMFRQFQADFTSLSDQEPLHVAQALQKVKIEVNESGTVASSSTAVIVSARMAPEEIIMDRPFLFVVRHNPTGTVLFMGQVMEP

Row | SMILES | IC50 [nM]
1 | O=C(O)/C(=C/c1sc2cc(OCc3ccc(S(=O)(=O)c4ccccc4)cc3)c(OCc3ccc(S(=O)(=O)c4ccccc4)cc3)cc2c1Oc1ccc(Cl)cc1)c1ccncc1 | 770
2 | O=C(O)/C(=C/c1sc2cc(OCc3ccccc3-c3ccccc3)c(OCc3ccccc3-c3ccccc3)cc2c1Oc1ccc(Cl)cc1)c1ccncc1 | 10800
3 | Cc1cc(Oc2c(/C=C(/C(=O)O)c3ccncc3)sc3cc(OCc4ccc(-c5ccccc5)cc4)c(OCc4ccc(-c5ccccc5)cc4)cc23)cc(C)c1Cl | 1090
4 | Cc1cc(Oc2c(/C=C(/C(=O)O)c3ccncc3)sc3cc(OCc4ccc(-c5ccccc5)cc4)c(OCc4ccc(-c5ccccc5)cc4)cc23)ccc1Cl | 480
5 | O=C(O)/C(=C/c1sc2cc(OCc3ccc(-c4ccccc4)cc3)c(OCc3ccc(-c4ccccc4)cc3)cc2c1Oc1ccc(Oc2ccncc2)cc1)c1ccncc1 | 10700
6 | CN(C)CCSc1ccc(/C=c2\[nH]c(=O)/c(=C/c3ccccc3)[nH]c2=O)s1 | 106000
7 | O=C(O)/C(=C/c1sc2cc(OCc3ccc(-c4ccccc4)cc3)c(OCc3ccc(-c4ccccc4)cc3)cc2c1Oc1ccc2ncccc2c1)c1ccncc1 | 6060
8 | O=C(O)/C(=C/c1sc2cc(OCc3ccc(-c4ccccc4)cc3)c(OCc3ccc(-c4ccccc4)cc3)cc2c1Oc1ccc(F)c(F)c1)c1ccncc1 | 590
9 | O=C(O)/C(=C/c1sc2cc(OCc3ccc(-c4ccccc4)cc3)c(OCc3ccc(-c4ccccc4)cc3)cc2c1Oc1cccnc1)c1ccncc1 | 2400
10 | Cc1ccc(Oc2c(/C=C(/C(=O)O)c3ccncc3)sc3cc(OCc4ccc(-c5ccccc5)cc4)c(OCc4ccc(-c5ccccc5)cc4)cc23)cn1 | 2480
11 | O=C(O)/C(=C/c1sc2cc(OCc3ccc(-c4ccccc4)cc3)c(OCc3ccc(-c4ccccc4)cc3)cc2c1Oc1ccc(Cl)nc1)c1ccncc1 | 2070
12 | O=C(O)/C(=C/c1sc2cc(OCc3ccc(-c4ccccc4)cc3)c(OCc3ccc(-c4ccccc4)cc3)cc2c1Oc1ccc(Cl)c(F)c1)c1ccncc1 | 2280
13 | O=C(O)/C(=C/c1sc2cc(OCc3ccc(-c4ccccc4)cc3)c(OCc3ccc(-c4ccccc4)cc3)cc2c1Oc1ccc(-n2ccnc2)cc1)c1ccncc1 | 2910
14 | COC(=O)/C(=C/c1sc2cc(OCc3ccccc3)c(OCc3ccccc3)cc2c1Oc1ccc(Cl)cc1)c1ccncc1 | 470
15 | CN(C)CCSc1ccc(/C=c2\[nH]c(=O)/c(=C/c3ccccc3)[nH]c2=O)cc1 | 51000
16 | COc1ccc(/C=c2\[nH]c(=O)/c(=C/c3ccccc3)[nH]c2=O)cc1 | 59400

Stronger by IC50, values ahead:

Row | IC50 [nM] | SMILES
17 | 140 | COc1ccc(-c2ccc(COc3cc4sc(/C=C(/C(=O)O)c5ccncc5)c(Oc5ccc(Cl)cc5)c4cc3OCc3ccc(-c4ccc(OC)cc4)cc3)cc2)cc1
18 | 100 | O=C(O)/C(=C/c1sc2cc(OCc3ccc(-c4ccccc4)cc3)c(OCc3ccc(-c4ccccc4)cc3)cc2c1Oc1ccccc1)c1ccncc1
19 | 39 | O=C(O)/C(=C/c1sc2cc(OCc3ccc(Sc4ccccc4)cc3)c(OCc3ccc(Sc4ccccc4)cc3)cc2c1Oc1ccc(Cl)cc1)c1ccncc1
20 | 220 | O=C(O)/C(=C/c1sc2cc(OCc3cccc(-c4ccccc4)c3)c(OCc3cccc(-c4ccccc4)c3)cc2c1Oc1ccc(Cl)cc1)c1ccncc1
21 | 270 | O=C(O)/C(=C/c1sc2cc(OCc3ccc(Cc4ccccc4)cc3)c(OCc3ccc(Cc4ccccc4)cc3)cc2c1Oc1ccc(Cl)cc1)c1ccncc1
22 | 240 | O=C(O)/C(=C/c1sc2cc(OCc3ccc(-c4ccccc4)cc3)c(OCc3ccc(-c4ccccc4)cc3)cc2c1Oc1cccc(F)c1)c1ccncc1
23 | 100 | O=C(O)/C(=C/c1sc2cc(OCc3ccc(Oc4ccccc4)cc3)c(OCc3ccc(Oc4ccccc4)cc3)cc2c1Oc1ccc(Cl)cc1)c1ccncc1
